Reference: the supplement of paper PMC11451515

What was measured:
Conditions in all cases: 48 h
SEM cells [1] = test: AUC of viability dose-response curve (% viability x log10 dose units); higher = less sensitive
Procedure, shortened: (§1)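 Viability of medium-adapted leukemia cells was measured by CellTiter-Glo One luminescence after 48 h at 37°C with library compounds in DMSO. Doses were 11 threefold steps from 47 μM to 0.79 nM, in 1536-well plates at 500 or 1000 cells/well. Signals were normalised per plate to DMSO and cell-free wells and fitted with a four-parameter log-logistic model on log10 dose. Area under the curve was integrated by trapezoidal rule, with curves exceeding full viability scaled and failed quality-control curves removed.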

P12-Ichikawa [2] = test: as above
Procedure, shortened: as §1

NOMO1 [3] = test: as above
Procedure, shortened: as §1

SEM cells [4] = test: cell viability relative to DMSO control; higher = less cytotoxic
Procedure, shortened: (§2)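 Viability values are per-plate percentages of DMSO wells, with background from cell-free wells. Library compounds in DMSO were pin-dosed, in an 11-point threefold series from 47 μM to 0.79 nM, onto NOMO1 or SEM (500 cells/well) or P12-Ichikawa (1000 cells/well) leukemia cells in 1536-well plates (5 μl). Those cells had been adapted for at least four passages in each medium, and CellTiter-Glo One luminescence was read after 48 h at 37°C.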

P12-Ichikawa [5] = test: as above
Procedure, shortened: as §2

NOMO1 [6] = test: as above
Procedure, shortened: as §2

COc1cc(-c2nn(C3CCC(N4CCN(C(C)=O)CC4)CC3)c3ncnc(N)c23)ccc1NC(=O)c1cc2ccccc2n1C (configuration not stated)
AUC of viability dose-response curve
Conditions | NOMO1 [3] | P12-Ichikawa [2] | SEM cells [1]
HPLM + 10% dialyzed FBS | 443 | 449 | 472
RPMI 5 mM glucose + 10% FBS | 450 | 465 | 468
RPMI 5 mM glucose + 10% dialyzed FBS | 460 | 460 | 468

cell viability [%]
Conditions | NOMO1 [6] | P12-Ichikawa [5] | SEM cells [4]
HPLM + 10% dialyzed FBS, 0.000781 µM | – | 117 | 121
HPLM + 10% dialyzed FBS, 0.00234 µM | – | 114 | 117
HPLM + 10% dialyzed FBS, 0.00702 µM | – | 114 | 123
HPLM + 10% dialyzed FBS, 0.0211 µM | – | 128 | 113
HPLM + 10% dialyzed FBS, 0.0632 µM | – | 115 | 123
HPLM + 10% dialyzed FBS, 0.19 µM | – | 116 | 126
HPLM + 10% dialyzed FBS, 0.569 µM | – | 107 | 123
HPLM + 10% dialyzed FBS, 1.71 µM | – | 111 | 142
HPLM + 10% dialyzed FBS, 5.12 µM | – | 103 | 121
HPLM + 10% dialyzed FBS, 15.4 µM | – | 102 | 121
HPLM + 10% dialyzed FBS, 46.1 µM | – | 83.9 | 101
RPMI 5 mM glucose + 10% FBS, 0.000781 µM | 104 | 110 | 125
RPMI 5 mM glucose + 10% FBS, 0.00234 µM | 117 | 114 | 117
RPMI 5 mM glucose + 10% FBS, 0.00702 µM | 101 | 118 | 115
RPMI 5 mM glucose + 10% FBS, 0.0211 µM | 109 | 115 | 109
RPMI 5 mM glucose + 10% FBS, 0.0632 µM | 107 | 113 | 131
RPMI 5 mM glucose + 10% FBS, 0.19 µM | 111 | 117 | 140
RPMI 5 mM glucose + 10% FBS, 0.569 µM | 106 | 109 | 132
RPMI 5 mM glucose + 10% FBS, 1.71 µM | 113 | 102 | 135
RPMI 5 mM glucose + 10% FBS, 5.12 µM | 112 | 113 | 129
RPMI 5 mM glucose + 10% FBS, 15.4 µM | 89.2 | 115 | 122
RPMI 5 mM glucose + 10% FBS, 46.1 µM | 26.8 | 100 | 85.5
RPMI 5 mM glucose + 10% dialyzed FBS, 0.000781 µM | 106 | 109 | 104
RPMI 5 mM glucose + 10% dialyzed FBS, 0.00234 µM | 110 | 110 | 124
RPMI 5 mM glucose + 10% dialyzed FBS, 0.00702 µM | 120 | 119 | 121
RPMI 5 mM glucose + 10% dialyzed FBS, 0.0211 µM | 119 | 117 | 128
RPMI 5 mM glucose + 10% dialyzed FBS, 0.0632 µM | 129 | 114 | 124
RPMI 5 mM glucose + 10% dialyzed FBS, 0.19 µM | 115 | 106 | 111
RPMI 5 mM glucose + 10% dialyzed FBS, 0.569 µM | 113 | 110 | 117
RPMI 5 mM glucose + 10% dialyzed FBS, 1.71 µM | 112 | 109 | 130
RPMI 5 mM glucose + 10% dialyzed FBS, 5.12 µM | 106 | 110 | 120
RPMI 5 mM glucose + 10% dialyzed FBS, 15.4 µM | 109 | 103 | 113
RPMI 5 mM glucose + 10% dialyzed FBS, 46.1 µM | 31.3 | 97.7 | 90
